pIC50: −log10 of the molar value.

As usually defined, the pIC50 is −log10 of the IC50, conventionally taken in molar units.

Chain of human factor IXa (P00740 227-461): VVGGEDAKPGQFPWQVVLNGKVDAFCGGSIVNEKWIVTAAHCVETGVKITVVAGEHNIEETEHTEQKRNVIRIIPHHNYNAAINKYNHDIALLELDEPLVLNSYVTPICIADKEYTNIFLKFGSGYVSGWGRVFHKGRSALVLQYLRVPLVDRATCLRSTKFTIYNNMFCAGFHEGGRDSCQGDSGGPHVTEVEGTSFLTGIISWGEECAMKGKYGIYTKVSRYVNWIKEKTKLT
Chain of human factor IXa (P00740 47-191 partner): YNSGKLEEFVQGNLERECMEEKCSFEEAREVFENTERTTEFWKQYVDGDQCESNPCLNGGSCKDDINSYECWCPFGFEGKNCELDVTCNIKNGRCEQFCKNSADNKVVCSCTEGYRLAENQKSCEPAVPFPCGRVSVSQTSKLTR

For this test, the target named is human factor IXa (Homo sapiens (Human), UniProt P00740). Put plainly: Determination of Inhibitory Activity Against Factor IXa. It counts as biochemical. The note with it: Factor IXa enzyme assay human; read-out: FIXa IC50. The method, then:
Inhibitory activity against factor IXa was tested using the substrate SPECTROFLUOR FIXa (american diagnostica inc.; 500 West Avenue, Stamford, Conn. 06902 USA; Pr. No. 299F) and human factor IXa (american diagnostica inc.; Pr. No. 449b). Test substances were dissolved in buffer A (50 mM α,α,α-tris(hydroxymethyl) methylamine (Tris), 100 mM NaCl, 5 mM CaCl2, 15% (v/v) ethylene glycol, pH 8.0) were mixed with factor IXa (0.1 μg/ml final concentration). The enzyme reaction was started by addition of SPECTROFLUOR FIXa (100 μM final concentration). After incubation for 60 minutes at room temperature, the reaction was stopped by the addition of 20% (v/v) acetic acid solution, and then the fluorescence value was measured (Excitation Wavelength: 355 nm, Emission Wavelength; 460 nm) in a microtiter plate reader (ARVO 1420 Multilabel Counter; PerkinElmer).
The IC50 was calculated from a dilution series of the test substance with the aid of the software, Symyx Assay Explorer (Symyx Technologies, Inc.).
As for `Nc1noc2c(N3CC[C@@H](NC(=O)c4ccc(-c5cncc(CCO)c5)cc4Cl)C3)ncc(Cl)c12` [Example 31, (R)—N-(1-(3-Amino-4-chloroisoxazolo[5,4-c]pyridin-7-yl)pyrrolidin-3-yl)-2-chloro-4-(5-(2-hydroxyethyl)pyridin-3-yl)benzamide], the pIC50 was at least 7.00. Consider `Nc1noc2c(N3CC[C@@H](NC(=O)c4ccc(-n5cnc6ncccc65)cc4Cl)C3)ncc(Cl)c12` [Example 32, (R)—N-(1-(3-Amino-4-chloroisoxazolo[5,4-c]pyridin-7-yl)pyrrolidin-3-yl)-2-chloro-4-(1H-imidazo[4,5-b]pyridin-1-yl)benzamide], for which the pIC50 is at least 7.00. Regarding `Nc1noc2c(N3CC[C@@H](NC(=O)c4ccc(-c5cnccn5)cc4Cl)C3)ncc(Cl)c12` [Example 33, (R)—N-(1-(3-Amino-4-chloroisoxazolo[5,4-c]pyridin-7-yl)pyrrolidin-3-yl)-2-chloro-4-(pyrazin-2-yl)benzamide], the pIC50 was at least 7.00. Consider `Cc1ncn(-c2ccc(C(=O)N[C@@H]3CCN(c4cc(C#N)cc5c(N)noc45)C3)c(Cl)c2)n1` [Example 34, (R)—N-(1-(3-Amino-5-cyanobenzo[d]isoxazol-7-yl)pyrrolidin-3-yl)-2-chloro-4-(3-methyl-1H-1,2,4-triazol-1-yl)benzamide], for which the pIC50 was at least 7.00. On to `Nc1noc2c(N3CC[C@@H](NC(=O)c4ccc(-c5ccc(=O)n(CC(F)(F)F)c5)cc4Cl)C3)ncc(Cl)c12` [Example 35, (R)—N-(1-(3-Amino-4-chloroisoxazolo[5,4-c]pyridin-7-yl)pyrrolidin-3-yl)-2-chloro-4-(6-oxo-1-(2,2,2-trifluoroethyl)-1,6-dihydropyridin-3-yl)benzamide], for which the pIC50 was at least 7.00. Then `Nc1noc2c(N3CC[C@@H](NC(=O)c4ccc(-n5cnnc5)cc4)C3)ncc(Cl)c12` [Example 36, (R)—N-(1-(3-Amino-4-chloroisoxazolo[5,4-c]pyridin-7-yl)pyrrolidin-3-yl)-4-(4H-1,2,4-triazol-4-yl)benzamide], with at least 7.00; and `Nc1noc2c(N3CC[C@@H](NC(=O)c4ccc(-c5ccc(=O)n(C(F)F)c5)cc4Cl)C3)ncc(Cl)c12` [Example 37, (R)—N-(1-(3-Amino-4-chloroisoxazolo[5,4-c]pyridin-7-yl)pyrrolidin-3-yl)-2-chloro-4-(1-(difluoromethyl)-6-oxo-1,6-dihydropyridin-3-yl)benzamide], with at least 7.00. Turning to `Nc1noc2c(N3CC[C@@H](NC(=O)c4ccc(-c5ccc6nncn6c5)cc4Cl)C3)ncc(Cl)c12` [Example 38, (R)-4-([1,2,4]Triazolo[4,3-a]pyridin-6-yl)-N-(1-(3-amino-4-chloroisoxazolo[5,4-c]pyridin-7-yl)pyrrolidin-3-yl)-2-chlorobenzamide], the pIC50 was at least 7.00. With `Cc1ncn(-c2ccc(C(=O)N[C@@H]3CCN(c4nc(C(F)F)cc5c(N)noc45)C3)c(Cl)c2)n1` [Example 39, (R)—N-(1-(3-Amino-5-(difluoromethyl)isoxazolo[5,4-c]pyridin-7-yl)pyrrolidin-3-yl)-2-chloro-4-(3-methyl-1H-1,2,4-triazol-1-yl)benzamide], the pIC50 is 6.00 to 7.00.

Take `Cn1nc(-c2ccc(C(=O)N[C@@H]3CCN(c4ncc(Cl)c5c(N)noc45)C3)c(Cl)c2)ccc1=O` [Example 40, (R)—N-(1-(3-Amino-4-chloroisoxazolo[5,4-c]pyridin-7-yl)pyrrolidin-3-yl)-2-chloro-4-(1-methyl-6-oxo-1,6-dihydropyridazin-3-yl)benzamide]: the pIC50 is at least 7.00. In the case of `Cc1ncn(-c2ccc(C(=O)N[C@@H]3CCN(c4nc(C#N)cc5c(N)noc45)C3)c(Cl)c2)n1` [Example 41, (R)—N-(1-(3-Amino-5-cyanoisoxazolo[5,4-c]pyridin-7-yl)pyrrolidin-3-yl)-2-chloro-4-(3-methyl-1H-1,2,4-triazol-1-yl)benzamide], the pIC50 was at least 7.00. Take `Cc1cc2c(N)noc2c(N2CC[C@@H](NC(=O)c3ccc(-n4cc(CCO)nn4)cc3Cl)C2)n1` [Example 42, (R)—N-(1-(3-Amino-5-methylisoxazolo[5,4-c]pyridin-7-yl)pyrrolidin-3-yl)-2-chloro-4-(4-(2-hydroxyethyl)-1H-1,2,3-triazol-1-yl)benzamide]: the pIC50 is at least 7.00.

As for `Nc1noc2c(N3CC[C@@H](NC(=O)c4ccc(-n5cnnc5C(F)(F)F)cc4Cl)C3)ncc(Cl)c12` [Example 43, (R)—N-(1-(3-Amino-4-chloroisoxazolo[5,4-c]pyridin-7-yl)pyrrolidin-3-yl)-2-chloro-4-(3-(trifluoromethyl)-4H-1,2,4-triazol-4-yl)benzamide], the pIC50 was at least 7.00. As for `Cn1cc(-c2ccc(C(=O)N[C@@H]3CCN(c4ncc(Cl)c5c(N)noc45)C3)c(Cl)c2)cnc1=O` [Example 44, (R)—N-(1-(3-Amino-4-chloroisoxazolo[5,4-c]pyridin-7-yl)pyrrolidin-3-yl)-2-chloro-4-(1-methyl-2-oxo-1,2-dihydropyrimidin-5-yl)benzamide], the pIC50 is at least 7.00. Regarding `Cn1ncn(-c2ccc(C(=O)N[C@@H]3CCN(c4ncc(Cl)c5c(N)noc45)C3)c(Cl)c2)c1=O` [Example 45, (R)—N-(1-(3-Amino-4-chloroisoxazolo[5,4-c]pyridin-7-yl)pyrrolidin-3-yl)-2-chloro-4-(1-methyl-5-oxo-1,5-dihydro-4H-1,2,4-triazol-4-yl)benzamide], the pIC50 was at least 7.00. For `Nc1noc2c(N3CC[C@@H](NC(=O)c4ccc(-n5cn[nH]c5=O)cc4Cl)C3)ncc(Cl)c12` [Example 46, (R)—N-(1-(3-Amino-4-chloroisoxazolo[5,4-c]pyridin-7-yl)pyrrolidin-3-yl)-2-chloro-4-(5-oxo-1,5-dihydro-4H-1,2,4-triazol-4-yl)benzamide], the pIC50 was at least 7.00. As for `Nc1noc2c(N3CC[C@@H](NC(=O)c4ccc(-n5cnn(CCO)c5=O)cc4Cl)C3)ncc(Cl)c12` [Example 47, (R)—N-(1-(3-Amino-4-chloroisoxazolo[5,4-c]pyridin-7-yl)pyrrolidin-3-yl)-2-chloro-4-(1-(2-hydroxyethyl)-5-oxo-1,5-dihydro-4H-1,2,4-triazol-4-yl)benzamide], the pIC50 is at least 7.00. With `Nc1noc2c(N3CC[C@@H](NC(=O)c4ccc(-n5cnc6cncnc65)cc4Cl)C3)ncc(Cl)c12` [Example 48, (R)—N-(1-(3-Amino-4-chloroisoxazolo[5,4-c]pyridin-7-yl)pyrrolidin-3-yl)-2-chloro-4-(9H-purin-9-yl)benzamide], the pIC50 is at least 7.00. With `Cc1cc2c(N)noc2c(N2CC[C@@H](NC(=O)c3c(Cl)cc(-n4cnn(C)c4=O)cc3Cl)C2)n1` [Example 49, (R)—N-(1-(3-Amino-5-methylisoxazolo[5,4-c]pyridin-7-yl)pyrrolidin-3-yl)-2,6-dichloro-4-(1-methyl-5-oxo-1,5-dihydro-4H-1,2,4-triazol-4-yl)benzamide], the pIC50 was at least 7.00. Take `Nc1noc2c(N3CC[C@@H](NC(=O)c4ccc(-n5cnn(CC(F)(F)F)c5=O)cc4Cl)C3)ncc(Cl)c12` [Example 50, (R)—N-(1-(3-Amino-4-chloroisoxazolo[5,4-c]pyridin-7-yl)pyrrolidin-3-yl)-2-chloro-4-(5-oxo-1-(2,2,2-trifluoroethyl)-1,5-dihydro-4H-1,2,4-triazol-4-yl)benzamide]: the pIC50 is at least 7.00.
